Experimental data: PubChem BioAssay AID256 (DTP/NCI, 2004)
Several values for one entry are separate records, joined by “and”; a condition that tells them apart may be missing. Equal values may be shown once. Toxic doses and inconclusive results are not listed. The calls were made as follows: active = survival T/C of 150% or more; inactive = T/C below 125% in these data.

Tested on: CD2F1 mice, L1210 leukemia ip, survival T/C
Assay: NCI In Vivo Anticancer Drug Screen. Data for tumor model L1210 Leukemia (intraperitoneal) in CD2F1 (CDF1) mice
Conditions: endpoint: mean survival time, higher = longer survival
In short: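 Vehicle-treated tumor-bearing mice served as controls (C) for compound-treated mice (T). Reported figure is T divided by C.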

[1] = dose: 25.0 mg/kg/injection, schedule: Q04DX002 (ip), vehicle: saline with Tween-80
[2] = dose: 50.0 mg/kg/injection, schedule: Q04DX002 (ip), vehicle: saline with Tween-80
[3] = dose: 100.0 mg/kg/injection, schedule: Q04DX002 (ip), vehicle: saline with Tween-80
[4] = dose: 100.0 mg/kg/injection, schedule: Q01DX009 (ip), vehicle: saline with Tween-80
[5] = dose: 200.0 mg/kg/injection, schedule: Q01DX009 (ip), vehicle: saline with Tween-80
[6] = dose: 400.0 mg/kg/injection, schedule: Q01DX009 (ip), vehicle: saline with Tween-80
[7] = dose: 100.0 mg/kg/injection, schedule: Q04DX003 (ip), vehicle: saline with Tween-80
[8] = dose: 200.0 mg/kg/injection, schedule: Q04DX003 (ip), vehicle: saline with Tween-80
[9] = dose: 400.0 mg/kg/injection, schedule: Q04DX003 (ip), vehicle: saline with Tween-80
[10] = dose: 100.0 mg/kg/injection, schedule: Q01DX001 (ip), vehicle: saline with Tween-80
[11] = dose: 200.0 mg/kg/injection, schedule: Q01DX001 (ip), vehicle: saline with Tween-80
[12] = dose: 100.0 mg/kg/injection, schedule: Q04DX003 (ip), vehicle: other
[13] = dose: 200.0 mg/kg/injection, schedule: Q04DX003 (ip), vehicle: other
[14] = dose: 400.0 mg/kg/injection, schedule: Q04DX003 (ip), vehicle: other
[15] = dose: 25.0 mg/kg/injection, schedule: Q01DX009 (ip), vehicle: saline
[16] = dose: 50.0 mg/kg/injection, schedule: Q01DX009 (ip), vehicle: saline
[17] = dose: 100.0 mg/kg/injection, schedule: Q01DX009 (ip), vehicle: saline
[18] = dose: 200.0 mg/kg/injection, schedule: Q04DX002 (ip), vehicle: saline with Tween-80
[19] = dose: 400.0 mg/kg/injection, schedule: Q04DX002 (ip), vehicle: saline with Tween-80
[20] = dose: 400.0 mg/kg/injection, schedule: Q01DX001 (ip), vehicle: saline with Tween-80

Measured: T/C

COc1cc(NC(=O)Nc2ccccc2Cl)c(OC)cc1Cl
inactive: [1] 98 % of control | [2] 94 % of control | [3] 102 % of control

Cc1ccc(Nc2ccc(Nc3ccc(C)cc3)c3c2C(=O)c2ccccc2C3=O)cc1
inactive: [4] 86 % of control | [5] 89 % of control | [6] 89 % of control

C1OC1C1CO1 (configuration not stated)
inactive: dose: 1.25 mg/kg/injection, schedule: Q01DX009 (ip), vehicle: saline 97 % of control and 98 % of control | dose: 2.5 mg/kg/injection, schedule: Q01DX009 (ip), vehicle: saline 95 % of control and 100 % of control | dose: 5.0 mg/kg/injection, schedule: Q01DX009 (ip), vehicle: saline 96 % of control and 103 % of control | dose: 10.0 mg/kg/injection, schedule: Q01DX009 (ip), vehicle: saline 98 % of control and 105 % of control | dose: 20.0 mg/kg/injection, schedule: Q01DX009 (ip), vehicle: saline 103 % of control and 112 % of control | dose: 40.0 mg/kg/injection, schedule: Q01DX009 (ip), vehicle: saline 108 % of control

Cc1c([N+](=O)[O-])cc2c(c1[N+](=O)[O-])C(C)(C)CC2(C)C
inactive: [4] 100 % of control | [7] 96 % of control | [5] 98 % of control | [8] 105 % of control | [6] 96 % of control | [9] 94 % of control

C[n+]1c(/C=C\c2ccc(Cl)cc2)ccc2ccccc21
inactive: dose: 3.13 mg/kg/injection, schedule: Q01DX009 (ip), vehicle: saline with Tween-80 96 % of control | dose: 6.25 mg/kg/injection, schedule: Q01DX009 (ip), vehicle: saline with Tween-80 98 % of control | dose: 6.25 mg/kg/injection, schedule: Q04DX003 (ip), vehicle: saline with Tween-80 98 % of control | dose: 12.5 mg/kg/injection, schedule: Q04DX003 (ip), vehicle: saline with Tween-80 90 % of control

CC(C)c1cc(C(C)C)nc(NNc2nc(C(C)C)cc(C(C)C)n2)n1
inactive: [7] 102 % of control | [8] 100 % of control | [9] 100 % of control

CC1=NN(c2ccc([N+](=O)[O-])cc2)C(=O)C1[N+](=O)[O-] (configuration not stated) (tested in a mixture with another compound)
inactive: dose: 75.0 mg/kg/injection, schedule: Q01DX001 (ip), vehicle: other 92 % of control | [10] 91 % of control | dose: 150.0 mg/kg/injection, schedule: Q01DX001 (ip), vehicle: other 104 % of control | [11] 97 % of control

c1ccc(C2=Nc3ccccc3C(c3ccccc3)=Nc3ccccc32)cc1
inactive: [7] 109 % of control | [8] 91 % of control | [9] 101 % of control

Nn1cnnc1SCc1ccccc1
inactive: [12] 100 % of control | [13] 97 % of control | [14] 105 % of control

CCOC(=O)CCC(NC(=O)c1ccc(N(C=O)CCOC=O)cc1)C(=O)OCC (configuration not stated)
inactive: [7] 97 % of control | [8] 96 % of control | [9] 96 % of control

CN(C)c1ccc(Cc2ccc(N(C)C)nc2)cn1
inactive: dose: 100.0 mg/kg/injection, schedule: Q01DX009 (ip), vehicle: Klucel (hydroxypropylcellulose) (HPC) 104 % of control | dose: 200.0 mg/kg/injection, schedule: Q01DX009 (ip), vehicle: Klucel (hydroxypropylcellulose) (HPC) 98 % of control | dose: 400.0 mg/kg/injection, schedule: Q01DX009 (ip), vehicle: Klucel (hydroxypropylcellulose) (HPC) 92 % of control

O=[N+]([O-])c1ccc(O/N=C(\CN2CCOCC2)c2ccc(Cl)cc2)c([N+](=O)[O-])c1
inactive: [7] 94 % of control | [8] 86 % of control | [9] 90 % of control

CCC(Cc1ccccc1Br)C1=NC(C)(C)CO1 (configuration not stated)
inactive: dose: 100.0 mg/kg/injection, schedule: Q01DX001 (ip), vehicle: acetone 96 % of control | dose: 200.0 mg/kg/injection, schedule: Q01DX001 (ip), vehicle: acetone 98 % of control

CCCCOS(=O)(=O)c1ccc(N)cc1
inactive: [7] 92 % of control | [8] 98 % of control | [9] 97 % of control

O=C1CSCC(=O)N1
inactive: [12] 111 % of control | [13] 111 % of control | [14] 98 % of control

CCCCOC(=S)S.[Zn+2]
inactive: [7] 94 % of control | [8] 108 % of control | [9] 89 % of control

CC(C)N1CCC1CO (configuration not stated)
inactive: [15] 96 % of control | [16] 100 % of control | [17] 94 % of control

CC(=O)Nc1ccc(C(=O)c2ccc(C(=O)O)cc2)cc1
inactive: [3] 92 % of control and 98 % of control | [7] 95 % of control and 100 % of control | [18] 93 % of control and 96 % of control | [8] 104 % of control and 109 % of control | [19] 96 % of control and 107 % of control | [9] 114 % of control and 104 % of control

CC(=O)OCC1OC2OC(C)(C)OC2C2OC(C)(C)OC12 (configuration not stated)
inactive: [7] 104 % of control | [8] 101 % of control | [9] 106 % of control

O=C(Nc1ccc(F)cc1)Nc1ccc(Cl)cc1
inactive: [4] 97 % of control | [5] 100 % of control | [6] 103 % of control

OCC(O)C(O)C(O)C(SCc1ccccc1)SCc1ccccc1 (configuration not stated)
inactive: [10] 97 % of control | [11] 93 % of control | [20] 89 % of control

CN(C)C1CCc2ccc3ccccc3c2C1=O (configuration not stated)
inactive: dose: 12.5 mg/kg/injection, schedule: Q01DX009 (ip), vehicle: saline 105 % of control | [15] 102 % of control | [16] 105 % of control

CN1CC(C(=O)NC2CCCCC2)CC2c3cccc4[nH]cc(c34)CC21 (configuration not stated)
inactive: dose: 50.0 mg/kg/injection, schedule: Q04DX003 (ip), vehicle: saline 96 % of control | dose: 100.0 mg/kg/injection, schedule: Q04DX003 (ip), vehicle: saline 92 % of control | dose: 200.0 mg/kg/injection, schedule: Q04DX003 (ip), vehicle: saline 102 % of control

CCCCCCCCC(=O)O
inactive: [7] 100 % of control | [8] 100 % of control | [9] 102 % of control

CC1(C)CC(NC(=O)CSc2ncnc3c2ncn3C2OC(CO)C(O)C2O)CC(C)(C)N1O (configuration not stated)
inactive: dose: 12.5 mg/kg/injection, schedule: Q01DX005 (ip), vehicle: water 96 % of control | dose: 25.0 mg/kg/injection, schedule: Q01DX005 (ip), vehicle: water 94 % of control | dose: 50.0 mg/kg/injection, schedule: Q01DX005 (ip), vehicle: water 94 % of control | dose: 100.0 mg/kg/injection, schedule: Q01DX005 (ip), vehicle: water 102 % of control | dose: 200.0 mg/kg/injection, schedule: Q01DX005 (ip), vehicle: water 96 % of control

O=S(=O)(O)O.[NH-]CC(=O)O.[NH-]CC(=O)O.[NH-]CC(=O)O.[NH-]CC(=O)O.[Pt+2].[Pt+2]
inactive: dose: 3.13 mg/kg/injection, schedule: Q04DX003 (ip), vehicle: distilled water + Tween-80 101 % of control | dose: 6.25 mg/kg/injection, schedule: Q04DX003 (ip), vehicle: distilled water + Tween-80 104 % of control | dose: 12.5 mg/kg/injection, schedule: Q04DX003 (ip), vehicle: distilled water + Tween-80 97 % of control | dose: 25.0 mg/kg/injection, schedule: Q04DX003 (ip), vehicle: distilled water + Tween-80 112 % of control | dose: 50.0 mg/kg/injection, schedule: Q04DX003 (ip), vehicle: distilled water + Tween-80 98 % of control

O=C(Oc1ccccc1)C(O)CO (configuration not stated)
inactive: [10] 104 % of control | [11] 101 % of control | [20] 97 % of control

O=C(O)CCC(=O)NNC(=O)c1cccnc1
inactive: [1] 107 % of control | [2] 104 % of control | [10] 106 % of control | [3] 107 % of control | [11] 106 % of control | [20] 98 % of control

CC(=O)Nc1c(Br)cc2c(c1Br)Cc1cc(N(CCO)CCO)ccc1-2
inactive: dose: 50.0 mg/kg/injection, schedule: Q01DX001 (ip), vehicle: carboxymethylcellulose (CMC) 102 % of control | dose: 100.0 mg/kg/injection, schedule: Q01DX001 (ip), vehicle: carboxymethylcellulose (CMC) 102 % of control | dose: 200.0 mg/kg/injection, schedule: Q01DX001 (ip), vehicle: carboxymethylcellulose (CMC) 104 % of control | dose: 400.0 mg/kg/injection, schedule: Q01DX001 (ip), vehicle: carboxymethylcellulose (CMC) 98 % of control

COC(=O)C(N)Cc1ccc(OC(c2ccccc2)(c2ccccc2)c2ccccc2)cc1 (configuration not stated)
inactive: [16] 100 % of control | [17] 92 % of control | dose: 200.0 mg/kg/injection, schedule: Q01DX009 (ip), vehicle: saline 94 % of control | dose: 400.0 mg/kg/injection, schedule: Q01DX009 (ip), vehicle: saline 94 % of control

CC(Nc1ccccc1)C(=O)N1CCC(Nc2ccccc2)CC1 (configuration not stated)
inactive: [3] 94 % of control | [18] 94 % of control | [19] 90 % of control
